The values below are quoted from earlier work in patent US9833455B2, “Preparation and methods of use for ortho-aryl 5-membered heteroaryl-carboxamide containing multi-targeted kinase inhibitors” (Spacefill Enterprises LLC, priority 2011, dated 2017).

Common to all, as to conditions: 1 μM, duplicate, without preincubation; cited from earlier work
One data set has as its target T1, PLK4 (Homo sapiens, UniProt O00444).
T1 construct: literature Ambit Biosciences
T1 sequence (O00444 1-970): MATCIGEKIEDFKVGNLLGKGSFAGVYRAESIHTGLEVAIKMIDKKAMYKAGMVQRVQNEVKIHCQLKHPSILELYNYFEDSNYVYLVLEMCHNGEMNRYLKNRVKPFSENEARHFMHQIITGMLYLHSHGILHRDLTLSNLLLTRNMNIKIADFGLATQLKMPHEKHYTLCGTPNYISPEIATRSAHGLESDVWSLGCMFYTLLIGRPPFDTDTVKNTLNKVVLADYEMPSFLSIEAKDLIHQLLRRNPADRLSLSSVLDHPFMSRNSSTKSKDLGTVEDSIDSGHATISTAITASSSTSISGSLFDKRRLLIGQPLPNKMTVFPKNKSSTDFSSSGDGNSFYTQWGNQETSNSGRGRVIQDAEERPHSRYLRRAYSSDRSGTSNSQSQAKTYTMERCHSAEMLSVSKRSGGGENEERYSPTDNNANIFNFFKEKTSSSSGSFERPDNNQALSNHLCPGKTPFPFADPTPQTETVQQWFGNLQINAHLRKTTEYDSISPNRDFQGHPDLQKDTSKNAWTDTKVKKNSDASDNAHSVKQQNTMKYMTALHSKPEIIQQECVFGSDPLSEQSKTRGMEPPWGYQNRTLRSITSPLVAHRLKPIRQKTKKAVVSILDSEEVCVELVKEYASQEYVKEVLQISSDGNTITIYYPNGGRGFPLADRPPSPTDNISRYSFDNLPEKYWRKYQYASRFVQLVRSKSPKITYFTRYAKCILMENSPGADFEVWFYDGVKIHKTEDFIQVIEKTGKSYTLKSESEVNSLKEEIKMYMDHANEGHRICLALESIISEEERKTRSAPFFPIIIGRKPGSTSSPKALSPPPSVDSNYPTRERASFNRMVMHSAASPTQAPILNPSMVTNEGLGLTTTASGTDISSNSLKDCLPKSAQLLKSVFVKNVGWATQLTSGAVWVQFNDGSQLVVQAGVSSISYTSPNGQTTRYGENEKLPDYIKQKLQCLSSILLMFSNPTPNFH

The target in another data set is T2, p38-alpha (Homo sapiens, UniProt Q16539).
T2 construct: literature Ambit Biosciences
T2 sequence (Q16539 whole entry): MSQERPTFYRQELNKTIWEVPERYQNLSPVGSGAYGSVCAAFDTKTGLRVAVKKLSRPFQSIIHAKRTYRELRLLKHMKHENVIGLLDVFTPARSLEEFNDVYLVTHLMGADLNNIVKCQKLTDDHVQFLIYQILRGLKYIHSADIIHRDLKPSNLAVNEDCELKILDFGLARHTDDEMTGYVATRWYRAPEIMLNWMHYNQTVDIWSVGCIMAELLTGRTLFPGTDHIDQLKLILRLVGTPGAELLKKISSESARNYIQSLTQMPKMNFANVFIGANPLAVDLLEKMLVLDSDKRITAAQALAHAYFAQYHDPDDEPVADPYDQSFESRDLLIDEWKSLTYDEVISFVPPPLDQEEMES

A further data set addresses T3, PDGFRB (Homo sapiens, UniProt P09619).
T3 construct: literature Ambit Biosciences

The next data set has as its target BRAF(V600E) (Homo sapiens, UniProt P15056, V600E). Also noted: literature Ambit Biosciences.
The next data set has as its target T4, PRKCE (Homo sapiens, UniProt Q02156).
T4 construct: literature Ambit Biosciences
T4 sequence (Q02156 1-737): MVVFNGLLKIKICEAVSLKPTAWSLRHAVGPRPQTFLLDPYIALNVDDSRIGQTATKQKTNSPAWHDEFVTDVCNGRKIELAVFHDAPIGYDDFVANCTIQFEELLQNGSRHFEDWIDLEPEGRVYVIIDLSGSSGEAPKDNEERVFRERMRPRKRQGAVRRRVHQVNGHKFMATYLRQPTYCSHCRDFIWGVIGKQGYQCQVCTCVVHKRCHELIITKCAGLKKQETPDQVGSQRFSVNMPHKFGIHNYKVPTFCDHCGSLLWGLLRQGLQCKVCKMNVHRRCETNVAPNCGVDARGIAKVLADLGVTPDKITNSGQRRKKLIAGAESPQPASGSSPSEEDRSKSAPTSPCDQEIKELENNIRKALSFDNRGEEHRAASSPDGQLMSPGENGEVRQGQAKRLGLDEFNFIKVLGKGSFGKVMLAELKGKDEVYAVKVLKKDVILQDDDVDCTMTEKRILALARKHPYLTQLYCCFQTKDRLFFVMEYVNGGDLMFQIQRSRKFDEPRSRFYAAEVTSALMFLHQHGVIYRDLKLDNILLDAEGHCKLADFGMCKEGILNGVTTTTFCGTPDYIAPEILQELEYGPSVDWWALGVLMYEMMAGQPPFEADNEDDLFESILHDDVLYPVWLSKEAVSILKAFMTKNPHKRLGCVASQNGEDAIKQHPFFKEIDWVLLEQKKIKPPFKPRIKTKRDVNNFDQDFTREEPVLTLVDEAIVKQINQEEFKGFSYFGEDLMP

The next data set concerns the target KIT (Homo sapiens, UniProt P10721).
A further data set has as its target T5, PIK3CA (Homo sapiens, UniProt P42336).
T5 construct: literature Ambit Biosciences

Another data set concerns the target T6, PDGFRA (Homo sapiens, UniProt P16234).
T6 construct: literature Ambit Biosciences

The target of the next data set is T7, ERBB2 (Homo sapiens, UniProt P04626).
T7 construct: literature Ambit Biosciences
T7 sequence (P04626 23-1255): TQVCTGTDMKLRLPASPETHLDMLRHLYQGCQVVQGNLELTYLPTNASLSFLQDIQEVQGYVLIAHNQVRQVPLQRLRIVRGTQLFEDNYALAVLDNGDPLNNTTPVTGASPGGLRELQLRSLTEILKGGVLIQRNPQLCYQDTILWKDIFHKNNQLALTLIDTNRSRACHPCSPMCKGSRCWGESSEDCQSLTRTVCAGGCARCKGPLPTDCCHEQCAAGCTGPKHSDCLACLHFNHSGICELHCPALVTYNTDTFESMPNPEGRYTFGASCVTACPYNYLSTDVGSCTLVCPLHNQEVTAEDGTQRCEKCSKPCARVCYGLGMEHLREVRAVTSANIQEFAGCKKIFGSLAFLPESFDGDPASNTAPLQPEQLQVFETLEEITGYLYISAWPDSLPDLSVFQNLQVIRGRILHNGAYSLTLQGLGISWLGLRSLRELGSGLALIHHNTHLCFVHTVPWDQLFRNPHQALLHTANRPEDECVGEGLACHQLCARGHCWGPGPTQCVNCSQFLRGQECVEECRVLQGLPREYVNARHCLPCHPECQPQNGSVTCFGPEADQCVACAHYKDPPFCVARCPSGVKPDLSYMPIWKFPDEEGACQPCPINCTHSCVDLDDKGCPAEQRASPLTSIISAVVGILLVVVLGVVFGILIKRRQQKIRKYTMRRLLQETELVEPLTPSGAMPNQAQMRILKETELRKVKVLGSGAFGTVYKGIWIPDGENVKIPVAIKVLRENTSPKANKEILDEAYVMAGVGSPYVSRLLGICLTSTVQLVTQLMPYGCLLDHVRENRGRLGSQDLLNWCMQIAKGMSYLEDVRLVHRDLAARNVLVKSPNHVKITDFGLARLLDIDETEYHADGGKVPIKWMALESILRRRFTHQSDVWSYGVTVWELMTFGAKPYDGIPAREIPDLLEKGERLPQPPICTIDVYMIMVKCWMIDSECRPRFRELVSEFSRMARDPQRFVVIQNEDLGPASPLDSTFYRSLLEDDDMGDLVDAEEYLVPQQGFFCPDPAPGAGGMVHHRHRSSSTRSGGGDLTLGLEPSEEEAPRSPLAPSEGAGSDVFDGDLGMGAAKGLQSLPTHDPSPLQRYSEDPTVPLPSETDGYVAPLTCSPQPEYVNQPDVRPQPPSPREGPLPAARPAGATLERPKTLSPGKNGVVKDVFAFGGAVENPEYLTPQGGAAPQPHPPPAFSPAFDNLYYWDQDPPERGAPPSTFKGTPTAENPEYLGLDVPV

The target of another data set is T8, MKNK1 (Homo sapiens, UniProt Q9BUB5).
T8 construct: literature Ambit Biosciences
T8 sequence (Q9BUB5 whole entry): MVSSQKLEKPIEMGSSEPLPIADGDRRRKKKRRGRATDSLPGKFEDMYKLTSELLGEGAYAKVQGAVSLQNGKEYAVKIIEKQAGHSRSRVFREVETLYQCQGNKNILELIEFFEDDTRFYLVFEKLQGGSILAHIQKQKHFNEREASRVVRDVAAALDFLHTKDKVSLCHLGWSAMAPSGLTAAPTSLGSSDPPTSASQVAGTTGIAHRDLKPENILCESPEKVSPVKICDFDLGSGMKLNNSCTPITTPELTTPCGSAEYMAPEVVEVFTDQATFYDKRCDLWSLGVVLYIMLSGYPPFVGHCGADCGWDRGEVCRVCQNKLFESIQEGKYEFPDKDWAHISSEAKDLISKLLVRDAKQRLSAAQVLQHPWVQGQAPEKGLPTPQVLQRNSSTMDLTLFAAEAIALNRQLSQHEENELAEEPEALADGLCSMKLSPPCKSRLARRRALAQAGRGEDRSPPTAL

Another data set deals with T9, RAF1 (Homo sapiens, UniProt P04049).
T9 construct: literature Ambit Biosciences

In a further data set the target is T10, BRAF (Homo sapiens, UniProt P15056).
T10 construct: literature Ambit Biosciences

The target of another data set is T11, p38-beta (Homo sapiens, UniProt Q15759).
T11 construct: literature Ambit Biosciences
T11 sequence (Q15759 whole entry): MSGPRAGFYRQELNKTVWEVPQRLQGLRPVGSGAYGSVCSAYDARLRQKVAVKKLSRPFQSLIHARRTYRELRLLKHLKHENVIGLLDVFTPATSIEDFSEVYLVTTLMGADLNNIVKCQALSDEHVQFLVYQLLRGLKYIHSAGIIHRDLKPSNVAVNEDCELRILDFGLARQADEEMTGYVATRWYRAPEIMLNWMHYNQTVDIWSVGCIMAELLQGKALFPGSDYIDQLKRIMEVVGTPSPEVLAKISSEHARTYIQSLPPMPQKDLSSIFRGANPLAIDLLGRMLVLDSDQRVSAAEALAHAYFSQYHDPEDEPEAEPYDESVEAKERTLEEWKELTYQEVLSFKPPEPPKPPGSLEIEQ

In another data set the target is T12, TYK2 (catalytic) (Homo sapiens, UniProt P29597).
T12 construct: catalytic; literature Ambit Biosciences
T12 sequence (P29597 897-1176 limits assumed): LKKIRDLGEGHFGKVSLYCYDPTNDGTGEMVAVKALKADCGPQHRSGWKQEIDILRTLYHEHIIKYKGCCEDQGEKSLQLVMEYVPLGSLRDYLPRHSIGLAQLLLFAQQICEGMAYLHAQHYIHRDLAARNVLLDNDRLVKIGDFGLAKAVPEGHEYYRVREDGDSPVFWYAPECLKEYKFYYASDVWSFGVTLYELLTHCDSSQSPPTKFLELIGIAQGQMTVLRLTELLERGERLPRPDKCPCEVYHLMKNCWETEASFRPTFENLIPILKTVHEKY

SMILES strings stand for the structures.

Sequence of KIT (P10721 26-976): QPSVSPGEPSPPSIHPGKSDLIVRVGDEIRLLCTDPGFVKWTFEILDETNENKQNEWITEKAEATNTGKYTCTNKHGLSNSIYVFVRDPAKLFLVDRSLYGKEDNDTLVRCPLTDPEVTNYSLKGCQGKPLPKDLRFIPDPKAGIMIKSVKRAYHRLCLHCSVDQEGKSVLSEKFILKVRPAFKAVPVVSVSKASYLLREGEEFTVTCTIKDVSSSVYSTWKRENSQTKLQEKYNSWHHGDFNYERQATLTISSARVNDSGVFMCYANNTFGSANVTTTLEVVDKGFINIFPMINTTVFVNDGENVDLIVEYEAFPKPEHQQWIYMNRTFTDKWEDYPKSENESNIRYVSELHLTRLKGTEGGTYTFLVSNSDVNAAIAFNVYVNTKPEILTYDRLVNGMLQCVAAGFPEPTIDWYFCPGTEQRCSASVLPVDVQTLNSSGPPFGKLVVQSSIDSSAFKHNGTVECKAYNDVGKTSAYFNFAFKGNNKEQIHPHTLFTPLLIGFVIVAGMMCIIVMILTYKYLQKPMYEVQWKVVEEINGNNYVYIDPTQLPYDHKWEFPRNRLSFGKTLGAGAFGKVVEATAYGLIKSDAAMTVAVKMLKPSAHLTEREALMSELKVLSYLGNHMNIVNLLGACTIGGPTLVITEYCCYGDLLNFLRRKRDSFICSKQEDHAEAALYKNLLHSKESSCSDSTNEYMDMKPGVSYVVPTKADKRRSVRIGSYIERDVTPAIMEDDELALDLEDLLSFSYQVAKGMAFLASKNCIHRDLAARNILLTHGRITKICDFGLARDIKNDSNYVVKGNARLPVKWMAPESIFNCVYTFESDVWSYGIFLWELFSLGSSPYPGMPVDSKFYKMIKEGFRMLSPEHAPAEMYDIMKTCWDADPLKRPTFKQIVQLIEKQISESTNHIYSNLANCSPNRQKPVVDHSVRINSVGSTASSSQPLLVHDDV
T5 sequence (P42336 whole entry): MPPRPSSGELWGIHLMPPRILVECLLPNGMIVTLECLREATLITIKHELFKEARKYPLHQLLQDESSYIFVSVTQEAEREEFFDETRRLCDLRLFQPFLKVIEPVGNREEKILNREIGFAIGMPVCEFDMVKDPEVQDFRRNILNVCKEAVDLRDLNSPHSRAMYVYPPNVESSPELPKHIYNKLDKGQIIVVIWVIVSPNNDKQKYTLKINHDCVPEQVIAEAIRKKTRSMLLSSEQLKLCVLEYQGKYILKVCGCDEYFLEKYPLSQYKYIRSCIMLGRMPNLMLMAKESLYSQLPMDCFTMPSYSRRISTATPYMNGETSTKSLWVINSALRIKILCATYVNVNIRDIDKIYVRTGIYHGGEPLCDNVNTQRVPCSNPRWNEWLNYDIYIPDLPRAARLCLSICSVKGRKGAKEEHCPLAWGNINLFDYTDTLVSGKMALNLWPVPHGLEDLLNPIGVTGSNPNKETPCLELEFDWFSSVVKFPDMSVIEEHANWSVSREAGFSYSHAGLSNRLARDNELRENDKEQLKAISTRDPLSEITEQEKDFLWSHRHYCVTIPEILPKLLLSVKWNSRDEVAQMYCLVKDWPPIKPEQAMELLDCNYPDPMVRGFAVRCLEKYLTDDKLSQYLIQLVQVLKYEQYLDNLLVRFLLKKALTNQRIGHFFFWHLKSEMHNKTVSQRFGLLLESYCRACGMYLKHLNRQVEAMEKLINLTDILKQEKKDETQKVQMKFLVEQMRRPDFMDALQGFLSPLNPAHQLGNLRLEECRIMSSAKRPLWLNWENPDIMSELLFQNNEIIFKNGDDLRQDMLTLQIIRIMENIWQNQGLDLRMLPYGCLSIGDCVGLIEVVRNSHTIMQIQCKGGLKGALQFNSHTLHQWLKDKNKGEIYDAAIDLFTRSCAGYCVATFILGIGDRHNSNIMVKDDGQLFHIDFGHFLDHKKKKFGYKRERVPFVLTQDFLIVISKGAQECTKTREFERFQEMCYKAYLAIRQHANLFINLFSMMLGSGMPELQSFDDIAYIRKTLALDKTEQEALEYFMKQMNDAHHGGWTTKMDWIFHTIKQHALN

As for `Cc1ccc(NC(=O)c2[nH]c(C(F)(F)F)nc2-c2ccc(F)cc2)cc1Nc1ccc2ncn(C)c(=O)c2c1` [KIN-035], the “inhibition of PLK4” value at PLK4 is given as “X (X > 25% @ 1 μM)”. For the same molecule, on p38-alpha, the “inhibition of p38-alpha” value was “XXXX (XXXX > 90% @ 1 μM)”. In addition, on PDGFRB, the “inhibition of PDGFRB” value was “XXX (XXX > 75% @ 1 μM)”. The “inhibition of BRAF(V600E)” value at BRAF(V600E) is given as “XXXX (XXXX > 90% @ 1 μM)”. The “inhibition of PRKCE” value on PRKCE is “X (X > 25% @ 1 μM)”. Further, the “inhibition of KIT” value on KIT is given as “XXXX (XXXX > 90% @ 1 μM)”. The “inhibition of PIK3CA” value on PIK3CA was “X (X > 25% @ 1 μM)”. The “inhibition of PDGFRA” value at PDGFRA is on record as “XX (XX > 50% @ 1 μM)”. The “inhibition of ERBB2” value at ERBB2 was “X (X > 25% @ 1 μM)”. For the same molecule, the “inhibition of MKNK1” value at MKNK1 is listed as “XX (XX > 50% @ 1 μM)”. On RAF1, the “inhibition of RAF1” value is given as “XXXX (XXXX > 90% @ 1 μM)”. Moreover, the “inhibition of BRAF” value on BRAF is “XXXX (XXXX > 90% @ 1 μM)”. Moreover, on p38-beta, the “inhibition of p38-beta” value is recorded as “X (X > 25% @ 1 μM)”. In addition, the “inhibition of TYK2 (catalytic)” value on TYK2 (catalytic) is “X (X > 25% @ 1 μM)”.

`Cc1ccc(-c2nc(C(F)(F)F)[nH]c2C(=O)Nc2ccc(C)c(Nc3ccc4ncn(C)c(=O)c4c3)c2)cc1F` [KIN-038]: the “inhibition of PLK4” value at PLK4 is “X (X > 25% @ 1 μM)”. The “inhibition of p38-alpha” value on p38-alpha is “XX (XX > 50% @ 1 μM)”. Further, the “inhibition of PDGFRB” value at PDGFRB was “XX (XX > 50% @ 1 μM)”. The “inhibition of BRAF(V600E)” value at BRAF(V600E) is given as “XXXX (XXXX > 90% @ 1 μM)”. Also, on PRKCE, the “inhibition of PRKCE” value is “X (X > 25% @ 1 μM)”. Further, on KIT, the “inhibition of KIT” value is given as “XXXX (XXXX > 90% @ 1 μM)”. Moreover, at PIK3CA, the “inhibition of PIK3CA” value was “X (X > 25% @ 1 μM)”. Further, the “inhibition of PDGFRA” value on PDGFRA is reported as “XX (XX > 50% @ 1 μM)”. Besides, the “inhibition of ERBB2” value on ERBB2 is on record as “X (X > 25% @ 1 μM)”. The “inhibition of MKNK1” value on MKNK1 is “X (X > 25% @ 1 μM)”. In addition, the “inhibition of RAF1” value at RAF1 is recorded as “XXXX (XXXX > 90% @ 1 μM)”. Besides, the “inhibition of BRAF” value on BRAF is “XXX (XXX > 75% @ 1 μM)”. Also, the “inhibition of p38-beta” value at p38-beta is “X (X > 25% @ 1 μM)”. The “inhibition of TYK2 (catalytic)” value at TYK2 (catalytic) is recorded as “X (X > 25% @ 1 μM)”.
